In the RepoRT retention time repository:

Test: HILIC, Waters ACQUITY UPLC BEH Amide, 100 × 2.1 mm, 1.7 µm; A: water + 0.125% formic acid + 10 mM ammonium formate; B: 5% water + 95% acetonitrile + 0.125% formic acid + 10 mM ammonium formate; gradient (min/%B) 0/100 2/100 7.7/70 9.5/40 10.25/30 12.75/100 17/100
Conditions: stereoisomer not certain

Row | Compound | LC retention time [min]
1 | CC(=O)Nc1ccccc1 [Acetanilide] | 1.11
2 | Nc1ncnc2c1ncn2C1OC2COP(=O)(O)OC2C1O (stereo not given) [Adenosine 3',5'-cyclic monophosphate] | 7.62
3 | CC12CC(=O)C3C(CCC4=CC(=O)CCC43C)C1CCC2=O (stereo not given) [Adrenosterone] | 1.1
4 | NCCCCN=C(N)N [Agmatine] | 8.92
5 | CC(N)C(=O)NC(C)C(=O)O (stereo not given) [Ala-Ala] | 8.41
6 | CC(N)C(=O)O (stereo not given) [Alanine] | 8.05
7 | CCCSc1ccc2nc(NC(=O)OC)[nH]c2c1 [Albendazole] | 1.22
8 | NC(=O)NC(NC(N)=O)C(=O)O [Allantoic acid] | 8.56
9 | Cc1nnc2n1-c1ccc(Cl)cc1C(c1ccccc1)=NC2 [Alprazolam] | 1.34
10 | NC12CC3CC(CC(C3)C1)C2 [Amantadine] | 4.88
11 | CC(N)Cc1ccccc1 (stereo not given) [Amphetamine] | 4.6
12 | CC12CCC3C(CCC4CC(O)CCC43C)C1CCC2O (stereo not given) [Androstane-3,17-diol] | 0.96
13 | CC12CCC3C(CCC4=CC(=O)CCC43C)C1CCC2=O (stereo not given) [Androstenedione] | 1.09
14 | CC12CCC3C(CCC4CC(O)CCC43C)C1CCC2=O (stereo not given) [Androsterone] | 4.62
15 | CCCCCC=CCC=CCC=CCC=CCCCC(=O)NCCc1ccc(O)c(O)c1 [Arachidonyl dopamine] | 1.14
16 | NC(N)=NCCCC(N)C(=O)NCC(=O)O (stereo not given) [Arg-Gly] | 9.85
17 | NC(N)=NCCCC(N)C(=O)NC(CO)C(=O)O (stereo not given) [Arg-Ser] | 9.9
18 | CC1CNc2c(cccc2S(=O)(=O)NC(CCCN=C(N)N)C(=O)N2CCC(C)CC2C(=O)O)C1 (stereo not given) [Argatroban] | 5.45
19 | NC(CC(=O)O)C(=O)NC(CCC(=O)O)C(=O)O (stereo not given) [Asp-Glu] | 9.47

Row | Compound | LC retention time [min]
20 | NC(CC(=O)O)C(=O)O (stereo not given) [Aspartic acid] | 9.33
21 | CN1C2CCC1CC(OC(=O)C(CO)c1ccccc1)C2 (stereo not given) [Atropine] | 4.32
22 | CN1C(=O)COc2c(C(=O)NC3CN4CCC3CC4)cc(Cl)cc21 (stereo not given) [Azasetron] | 4.66
23 | O=C(O)CCNC(=O)c1ccc(N=Nc2ccc(O)c(C(=O)O)c2)cc1 [Balsalazide] | 4.85
24 | CC1CC2C3CCC4=CC(=O)C=CC4(C)C3(Cl)C(O)CC2(C)C1(O)C(=O)CO (stereo not given) [Beclomethasone] | 1.26
25 | CCN(CC)CCOC(=O)C(O)(c1ccccc1)c1ccccc1 [Benactyzine] | 2.16
26 | CC(COc1ccccc1Cc1ccccc1)N1CCCCC1 (stereo not given) [Benproperine] | 1.99
27 | CN1C2CCC1C(C(=O)O)C(OC(=O)c1ccccc1)C2 (stereo not given) [Benzoylecgonine] | 3.63
28 | CC(Cc1ccccc1)N(C)Cc1ccccc1 (stereo not given) [Benzphetamine] | 2.03
29 | CC(C)CC(NC(=O)C(O)C(N)Cc1ccccc1)C(=O)O (stereo not given) [Bestatin] | 5.98
30 | CC(C)NCC(O)COc1ccc(CCOCC2CC2)cc1 (stereo not given) [Betaxolol] | 3.05
31 | CC(O)(CS(=O)(=O)c1ccc(F)cc1)C(=O)Nc1ccc(C#N)c(C(F)(F)F)c1 (stereo not given) [Bicalutamide] | 0.99
32 | O=C1CC2(CCCC2)CC(=O)N1CCNCC1COc2ccccc2O1 (stereo not given) [Binospirone] | 1.8
33 | O=C1CN=C(c2ccccn2)c2cc(Br)ccc2N1 [Bromazepam] | 1.3
34 | COc1cc2c(cc1OC)C13CCN4CC5=CCOC6CC(=O)N2C1C6C5CC43 (stereo not given) [Brucine] | 4.57
35 | COc1cc(OC)c(C(=O)CCCN2CCCC2)c(OC)c1 [Buflomedil] | 2.34
36 | CC(NC(C)(C)C)C(=O)c1cccc(Cl)c1 (stereo not given) [Bupropion] | 2.22
37 | Cn1c(=O)c2c(ncn2C)n(C)c1=O [Caffeine] | 1.21
38 | NC(N)=NOCCC(N)C(=O)O (stereo not given) [Canavanine] | 9.42

Next, values leading:

Row | LC retention time [min] | Compound
39 | 1.37 | CC(=O)Nc1ccc(O)cc1 [Acetaminophen]
40 | 2.94 | CC(=O)NO [Acetohydroxamic acid]
41 | 7.19 | CC(=O)OC(CC(=O)[O-])C[N+](C)(C)C (stereo not given) [Acetylcarnitine]
42 | 2.4 | CC(=O)N1C(=O)C(=O)c2ccccc21 [Acetylisatin]
43 | 1.03 | Cc1c2oc3c(C)ccc(C(=O)NC4C(=O)NC(C(C)C)C(=O)N5CCCC5C(=O)N(C)CC(=O)N(C)C(C(C)C)C(=O)OC4C)c3nc-2c(C(=O)NC2C(=O)NC(C(C)C)C(=O)N3CCCC3C(=O)N(C)CC(=O)N(C)C(C(C)C)C(=O)OC2C)c(N)c1=O (stereo not given) [Actinomycin D]
44 | 1.58 | CC(=O)Nc1ccc(CC(=O)O)cc1 [Actrarit]
45 | 4.71 | Nc1ncnc2nc[nH]c12 [Adenine]
46 | 8.88 | Nc1ncnc2c1ncn2C1OC(COP(=O)(O)O)C(O)C1O (stereo not given) [Adenosine 5'-monophosphate]
47 | 8.88 | Nc1ncnc2c1ncn2C1OC(CO)C(OP(=O)(O)O)C1O (stereo not given) [Adenosine-3-monophosphate]
48 | 4.77 | Nc1ncnc2c1ncn2C1OC(CO)C(O)C1O (stereo not given) [Adenosine]
49 | 9.11 | CC(N)C(=O)NC(CCC(N)=O)C(=O)O (stereo not given) [Ala-Gln]
50 | 7.83 | CCC(C)C(NC(=O)C(C)N)C(=O)O (stereo not given) [Ala-Ile]
51 | 7.6 | CC(C)CC(NC(=O)C(C)N)C(=O)O (stereo not given) [Ala-Leu]
52 | 7.66 | CC(N)C(=O)NC(C(=O)O)C(C)C (stereo not given) [Ala-Val]
53 | 5.55 | CC(C)(C)NCC(O)c1ccc(O)c(CO)c1 (stereo not given) [Albuterol]
54 | 4.29 | COc1cc2nc(N(C)CCCNC(=O)C3CCCO3)nc(N)c2cc1OC (stereo not given) [Alfuzosin]
55 | 4.19 | Cc1[nH]cnc1CN1CCc2c(c3ccccc3n2C)C1=O [Alosetron]
56 | 2.64 | O=C(c1ccc(F)cc1)C1CCN(CCn2c(=S)[nH]c3ccccc3c2=O)CC1 [Altanserin]
57 | 5.52 | NC(N)=NC(=O)c1nc(Cl)c(N)nc1N [Amiloride]

Row | LC retention time [min] | Compound
58 | 1.87 | CCCCc1oc2ccccc2c1C(=O)c1cc(I)c(OCCN(CC)CC)c(I)c1 [Amiodarone]
59 | 2.76 | CCN1CCCC1CNC(=O)c1cc(S(=O)(=O)CC)c(N)cc1OC (stereo not given) [Amisulpride]
60 | 1.81 | CC(C)c1ccc2oc3nc(N)c(C(=O)O)cc3c(=O)c2c1 [Amlexanox]
61 | 4.24 | CCOC(=O)C1=C(COCCN)NC(C)=C(C(=O)OC)C1c1ccccc1Cl (stereo not given) [Amlodipine]
62 | 0.95 | CCOC(=O)OC(C)OC1=C(C(=O)Nc2ccccn2)N(C)S(=O)(=O)c2ccccc21 (stereo not given) [Ampiroxicam]
63 | 1.82 | O=C1CN2Cc3c(ccc(Cl)c3Cl)N=C2N1 [Anagrelide]
64 | 0.98 | CC(C)(C#N)c1cc(Cn2cncn2)cc(C(C)(C)C#N)c1 [Anastrozole]
65 | 9.49 | Cn1cncc1CC(NC(=O)CCN)C(=O)O (stereo not given) [Anserine]
66 | 9.66 | CC(NC(=O)C(N)CCCN=C(N)N)C(=O)O (stereo not given) [Arg-Ala]
67 | 9.51 | NC(N)=NCCCC(N)C(=O)N1CCCC1C(=O)O (stereo not given) [Arg-Pro]
68 | 9.3 | CC(C)C(NC(=O)C(N)CCCN=C(N)N)C(=O)O (stereo not given) [Arg-Val]
69 | 9.53 | NC(N)=NCCCC(N)C(=O)O (stereo not given) [Arginine]
70 | 3.14 | O=C1CCc2ccc(OCCCCN3CCN(c4cccc(Cl)c4Cl)CC3)cc2N1 [Aripiprazole]
71 | 1.44 | O=C1OC(C(O)CO)C(O)=C1O (stereo not given) [Ascorbic acid]
72 | 8.14 | NC(CC(=O)O)C(=O)NC(Cc1ccccc1)C(=O)O (stereo not given) [Asp-Phe]
73 | 8.81 | NC(=O)CC(N)C(=O)O (stereo not given) [Asparagine]
74 | 2.42 | CNCCC(Oc1ccccc1C)c1ccccc1 (stereo not given) [Atomoxetine]
75 | 2.95 | CN1CCCC(n2nc(Cc3ccc(Cl)cc3)c3ccccc3c2=O)CC1 (stereo not given) [Azelastine]
76 | 1.33 | CCOC(=O)C(CCc1ccccc1)NC1CCc2ccccc2N(CC(=O)O)C1=O (stereo not given) [Benazepril]

Row | LC retention time [min] | Compound
77 | 1.46 | COC(=O)C1=C(C)NC(C)=C(C(=O)OC2CCCN(Cc3ccccc3)C2)C1c1cccc([N+](=O)[O-])c1 (stereo not given) [Benidipine]
78 | 1.27 | NC(=O)c1ccccc1 [Benzamide]
79 | 1.11 | c1ccc2scnc2c1 [Benzothiazole]
80 | 8.71 | CC(=O)OCc1ccccc1 [Benzylacetate]
81 | 7.24 | C[N+](C)(C)CC(=O)[O-] [Betaine]
82 | 2.46 | CNCCCCOc1ccccc1Cc1ccccc1 [Bifemelane]
83 | 1.19 | c1ccc(-c2ccc(C(c3ccccc3)n3ccnc3)cc2)cc1 (stereo not given) [Bifonazole]
84 | 2.85 | O=C(O)CCCCC1SCC2NC(=O)NC21 (stereo not given) [Biotin]
85 | 3.47 | CC(C)NCC(O)COc1ccc(COCCOC(C)C)cc1 (stereo not given) [Bisoprolol]
86 | 2.73 | NC(=O)NC(N)=O [Biuret]
87 | 10.2 | CCCC(=O)O [Butanoic acid]
88 | 3.73 | CCCC(=O)NCC(=O)O [Butyrylglycine]
89 | 8.99 | NCCCCCN [Cadaverine]
90 | 1.05 | c1ccc2c(-c3nccs3)c[nH]c2c1 [Camalexin]
91 | 1 | COc1cc(CNC(=O)CCCCC=CC(C)C)ccc1O [Capsaicin]
92 | 1.21 | NC(=O)N1c2ccccc2C=Cc2ccccc21 [Carbamazepine]
93 | 9.04 | NC(CSCC(=O)O)C(=O)O (stereo not given) [Carbocysteine]
94 | 1.11 | CC(Cc1ccc(C(C)C(=O)O)cc1)C(=O)O (stereo not given) [Carboxyibuprofen]
95 | 7.83 | C[N+](C)(C)CC(O)CC(=O)[O-] (stereo not given) [Carnitine]
